Legend:
Assay type in all cases: in vivo
Erysiphe graminis = test: Powdery Mildew of Wheat (Erysiphe graminis--ERYSGT); details: wheat (cultivar Monon), 100 ppm spray to run off, inoculated after 24 hours; for pest or weed control at 100 ppm: Blumeria graminis, 1DP, read-out: control of plant disease, ERYSGT 1DP
Method: (§1) Compound Formulation: Compound formulation was accomplished by dissolving technical materials in acetone, with serial dilutions then made in acetone to obtain desired rates. Final treatment volumes were obtained by adding nine volumes 0.05% aqueous Tween-20 or Triton X-100, depending upon the pathogen.
Powdery Mildew of Wheat (Erysiphe graminis--ERYSGT): Wheat (cultivar Monon) was grown in a soilless peat-based potting mixture (Metromix) until the seedlings were 1-2 leaf (BBCH 12). These plants were then sprayed to run off with the test compound at a rate of 100 ppm. After 24 hours the test plants were inoculated with Erysiphe graminis by dusting spores from stock plants onto the test plants. The plants were then transferred to the greenhouse until disease developed on the untreated control plants.
(§2) the following table presents the activity of typical compounds of the present invention when evaluated in these experiments. The effectiveness of the test compounds in controlling disease was rated using the following scale: […]

Phytophthora infestans = test: whole plant or invertebrate; details: for pest or weed control at 100 ppm: Phytophthora infestans, 24 h, read-out: control of plant disease, PHYTIN 1DP
Leptosphaeria nodorum = test: Glume blotch of wheat (Leptosphaeria nodorum--LEPTNO); details: wheat (cultivar Monon), 100 ppm spray to run off, inoculated after 24 hours; for pest or weed control at 100 ppm: Parastagonospora nodorum, 1DP, read-out: control of plant disease, LEPTNO 1DP
Method: as §1
(§3) Glume blotch of wheat (Leptosphaeria nodorum--LEPTNO): Wheat (cultivar Monon) was grown from seed in a soilless peat-based potting mixture (Metromix) until the seedlings were 1-2 leaf (BBCH 12). These plants were then sprayed to run off with the test compound at a rate of 100 ppm. After 24 hours the test plants were inoculated with an aqueous spore suspension of Leptosphaeria nodorum. The plants were then transferred to the greenhouse until disease developed on the untreated control plants.
as §2

Puccinia recondita = test: Brown rust (Puccinia recondita--PUCCRT); details: wheat (cultivar Monon), 100 ppm spray to run off, inoculated after 24 hours; for pest or weed control at 100 ppm: Puccinia recondita, 1DP, read-out: control of plant disease, PUCCRT 1DP
Method: as §1
as §3, with “Brown rust (Puccinia recondita--PUCCRT):” for “Glume blotch of wheat (Leptosphaeria nodorum--LEPTNO):”, “[…]).” for “1-2 leaf (BBCH 12).”, “Puccinia recondita.” for “Leptosphaeria nodorum.”
as §2

| SMILES | pest or weed control at 100 ppm (Erysiphe graminis) [%] | pest or weed control at 100 ppm (Phytophthora infestans) [%] | pest or weed control at 100 ppm (Leptosphaeria nodorum) [%] | pest or weed control at 100 ppm (Puccinia recondita) [%] | control of plant disease, ERYSGT 1DP (Erysiphe graminis) | control of plant disease, PHYTIN 1DP (Phytophthora infestans; tomatoes (cultivar Rutgers), 100 ppm spray to run off, inoculated after 24 hours, 1DP) | control of plant disease, LEPTNO 1DP (Leptosphaeria nodorum) | control of plant disease, PUCCRT 1DP (Puccinia recondita) |
| --- | --- | --- | --- | --- | --- | --- | --- | --- |
| CCCCC(CC)c1nc(-c2cnc(OCc3ccccc3C(=NOC)C(=O)NC)c(Cl)c2)no1 (stereo not shown) [Example 14] | 75 to 100 | 0 to 24 | 75 to 100 | 75 to 100 |  |  |  |  |
| CCOC(=O)c1nc(-c2cnc(OCc3ccccc3C(=NOC)C(=O)NC)c(C)c2)oc1C [Example 52, Benzeneacetamide, 2-[[[3-methyl-5-(4-ethoxycarbonyl-5-methyl-oxazol-2-yl)-2-pyridinyl]oxy]methyl]-α-(methoxyimino)-N-methyl-] | 25 to 74 | 75 to 100 | 25 to 74 | 75 to 100 |  |  |  |  |
| CCc1cc(-c2cnc(OCc3ccccc3C(=NOC)C(=O)NC)c(Cl)c2)on1 [Example 76] | 75 to 100 | 25 to 74 | 75 to 100 | 75 to 100 |  |  |  |  |
| CNC(=O)C(=NOC)c1ccccc1COc1ccc(-c2nc(C3CCCCC3)no2)cn1 [Example 73] | 75 to 100 | 25 to 74 | 0 to 24 | 75 to 100 |  |  |  |  |
| CNC(=O)C(=NOC)c1ccccc1COc1ncc(-c2nc(C3CC3)no2)cc1Cl [Example 53] | 75 to 100 | 75 to 100 | 25 to 74 | 75 to 100 |  |  |  |  |
| CNC(=O)C(=NOC)c1ccccc1COc1ncc(-c2noc(C(C)C)n2)cc1Cl [Example 37] | 75 to 100 | 0 to 24 | 75 to 100 | 75 to 100 |  |  |  |  |
| CCCc1noc(-c2ccc(OCc3ccccc3C(=NOC)C(=O)NC)nc2)n1 [Example 74] | 75 to 100 | 0 to 24 | 0 to 24 | 75 to 100 |  |  |  |  |
| CNC(=O)C(=NOC)c1ccccc1COc1ncc(-c2noc(C(C)(C)C)n2)cc1Cl [Example 6, Benzeneacetamide, 2-[[[3-chloro-5-(5-t-butyl-1,2,4-oxadiazol-3-yl)-2-pyridinyl]oxy]methyl]-α-(methoxyimino)-N-methyl-] | 75 to 100 | 75 to 100 | 75 to 100 | 75 to 100 |  |  |  |  |
| CNC(=O)C(=NOC)c1ccccc1COc1ncc(-c2noc(C3CC3)n2)cc1Cl [Example 21] | 75 to 100 | 75 to 100 | 75 to 100 | 75 to 100 |  |  |  |  |
| CNC(=O)C(=NOC)c1ccccc1COc1ncc(-c2noc(COC)n2)cc1Cl [Example 23] | 75 to 100 | 0 to 24 | 25 to 74 | 75 to 100 |  |  |  |  |
| CNC(=O)C(=NOC)c1ccccc1COc1ccc(-c2nc(C(C)C)no2)cn1 [Example 70] | 75 to 100 | 0 to 24 | 75 to 100 | 75 to 100 |  |  |  |  |
| CNC(=O)C(=NOC)c1cccc(Cl)c1COc1ncc(-c2noc(C(F)(F)F)n2)cc1Cl [Example 34] |  |  |  |  | ++ (75-100% control of plant disease) | - (0-24% control of plant disease) | ++ (75-100% control of plant disease) | ++ (75-100% control of plant disease) |
| CCOc1cc(-c2cnc(OCc3ccccc3C(=NOC)C(=O)NC)c(Cl)c2)no1 [Example 40] | 75 to 100 | 25 to 74 | 0 to 24 | 75 to 100 |  |  |  |  |
| CNC(=O)C(=NOC)c1ccccc1COc1ncc(-c2noc(C3CCCC3)n2)cc1Cl [Example 13] | 75 to 100 | 0 to 24 | 75 to 100 | 75 to 100 |  |  |  |  |
| CNC(=O)C(=NOC)c1ccccc1COc1ncc(-c2nc(N(C)C)no2)cc1Cl [Example 64] | 75 to 100 | 0 to 24 | 75 to 100 | 75 to 100 |  |  |  |  |
| CNC(=O)C(=NOC)c1ccccc1COc1ncc(-c2noc(C)n2)cc1Cl [Example 8] | 75 to 100 | 0 to 24 | 75 to 100 | 75 to 100 |  |  |  |  |

Reference: patent US6133294A (priority 1999, dated 2000)
